# Laboratory results published in US10730892B2, “Homoallylamines as formaldehyde-responsive triggers” (The Regents of the University of California, priority 2015, dated 2020).
# Read-outs that look alike come from different tables or passages of the source.
# Columns and labels:
# [1] = Fluorescence properties of compounds 3, 4, 5 and FP1 (Table 1); format: physicochemical
# From the text: Such red-shifted fluorophores are desirable because of low autofluorescence, minimal phototoxicity, and negligible interference from biomolecules when employed in live cell imaging. […] In the presence of FA, a reversible condensation event yielded an iminium intermediate which can undergo a charge-promoted [3,3]-sigmatropic rearrangement-hydrolysis sequence to expel the aryl nitro group and afford a highly fluorescent indole-3-carboxaldehyde product (ΦF=0.11) (Table 1). Of note, the aldehyde is strategically positioned at C3 such that after the reaction cascade, the N1 lone pair electrons can delocalize into the π-system rather than quench fluorescence via an acceptor-excited PeT (a-PeT) pathway. In this regard, silicon rhodol 3, without the carboxaldehyde, is non-fluorescent (Table 1).
# HEK293TN cells = details: 3 hrs
# Description: Prior to imaging, cells were allowed to recover in FA-free buffer for 30 min. […] Because FA is a powerful fixative, cell viability assays were performed to determine the cytotoxicity of FA under experimental conditions. A dye exclusion protocol was employed, utilizing trypan blue to selectively stain and distinguish dead cells from those that were viable. […] To further verify that the cell populations under investigation were indeed alive, DAPI, a cell permeable nuclear and chromosome counterstain, was employed to identify intact nuclei (FIG. 16).
# HEK293T cells [2] = details: FA in BSS, 37° C., 30 min
# MCF7 cells = assay: Confocal microscopy of FAP-1 in LSD1 inhibitor-treated MCF7 cells (endogenous FA); format: cell-based, human; details: 10 μM FAP-1 60 min
# From the text: Scale bar represents 50 μm in all images. […] Scale bar represents 50 μm in all images. […] Error bars denote SEM, n=6. *P<0.005
# [3] = Description: A modified version of the shake method was used to determine the partition coefficient or log Doct/wat value for FAP-1 (Rothbard et al., J. Am. Chem. Soc. 2004, 126:9506-9507). Briefly, 1-octanol-saturated PBS (248 μL), PBS-saturated 1-octanol (248 μL), and 1 mM solution of FAP-1 in DMSO (5 μL) were added to a 0.6-mL microcentrifuge tube. The dye was partitioned between the layers via vortexing for 30 s. The microcentrifuge tube was centrifuged on a bench-top minifuge at 4 k rpm for 4 minutes to separate the layers. A portion of the 1-octanol layer (200 μL) was transferred to a 96-well plate, and the fluorescence emission from 665-700 nm was measured (excitation at 645 nm) using a Synergy Mx multimode microplate reader (BioTek Instruments, Inc.) equipped with fluorescence module. The concentration of dye in the 1-octanol layer was determined by comparison with a standard curve constructed from six data points.
# [4] = remark: listed apart in the source
# Description: Milli-Q water was used to prepare all aqueous solutions. All spectroscopic measurements were performed in 20 mM PBS, pH 7.4. Absorption spectra were recorded using a Varian Cary 50 spectrophotometer, and fluorescence spectra were recorded using a Photon Technology International Quanta Master 4 L-format scan spectrofluorometer equipped with an LPS-220B 75-W xenon lamp and power supply, A-1010B lamp housing with integrated igniter, switchable 814 photocounting/analog photomultiplier detection unit, and MD5020 motor driver. Samples for absorption and emission measurements were contained in 1-cm×1-cm quartz cuvettes (1.4-mL volume, Starna).
# Quantum yield was determined using zinc phthalocyanine (ZnPc) as a standard according to a published method (Williams et al., Analyst. 1983, 108:1067-1071). For FAP-1 and ZnPc, the absorbance spectra were measured within an absorbance range below 0.1. The quantum yield was calculated according to the equation: ϕsample=ϕstandard (Gradsample/Gradstandard)(ηsample^2/ηstandard^2); where ϕ is the quantum yield, ϕstandard=0.34 in 1% pyridine/toluene (Bishop et al., J. Photochem. Photobiol. 1995, 90:39-44), Grad is the slope of the plot of absorbance versus integrated emission intensity, and η is the refractive index of the solvent.
# [5] = remark: listed apart in the source
# Description: 999 μL of a 10.01 μM solution of FAP-1 in 20 mM PBS (pH 7.4) was prepared by diluting a 10 mM dimethylsulfoxide (DMSO) stock solution of FAP-1 into pre-warmed PBS (37° C.) in a 1-cm×1-cm quartz cuvette. 1 μL of 100 mM stock solution of FA (freshly prepared by diluting commercial 37 wt. % in H2O FA solution) was added (for a final concentration of 100 μM), and the mixture was mixed by vigorous pipetting for 5 s, followed by acquisition of the t=0 spectrum. Emission spectra (λex=645 nm, λem=655-750 nm) were collected at 0, 20, 45, 60, 90, and 120 min (see FIG. 24A). Temperature was maintained at 37° C. throughout the experiment by immersing the cuvette in a heated water bath between measurements.
# 999 μL of a 10.01 μM solution of FAP-1 in 20 mM PBS (pH 7.4) was prepared by diluting a 10 mM DMSO stock solution of FAP-1 into pre-warmed PBS (37° C.) in a 1-cm×1-cm quartz cuvette. 1 μL of a FA stock solution (either 5 mM or 1 mM, freshly prepared by diluting commercial 37 wt. % FA solution with Milli-Q water) or 1 μL of PBS was added (for a final concentration of 5 μM, 1 μM, or 0 μM FA), and the mixture was mixed by vigorous pipetting for 5 s and placed in a 37° C. water bath. Emission spectra were obtained after 120 min. Statistical analyses for multiple comparisons were performed using one-way ANOVA with the Bonferroni correction in the statistical analysis software, R.
# [6] = remark: listed apart in the source
# Description: (§1) 999 μL of a 10.01 μM solution of FAP-1 (for 4-hydroxynonenal cuvette: 998.4 μL of a 10.02 μM solution of FAP-1; for glutathione cuvette: 950 μL of a 10.53 μM solution of FAP-1) in 20 mM PBS (pH 7.4) was prepared by diluting a 10 mM DMSO stock solution of FAP-1 into pre-warmed PBS (37° C.) in a 1-cm×1-cm quartz cuvette. The analyte of interest was added to the cuvette to bring the concentration of analyte to 100 μM (unless otherwise specified) and the concentration of FAP-1 to 10 μM, followed by mixing by vigorous pipetting for 5 seconds, and a t=0 spectrum was acquired. The cuvette was placed in a 37° C. water bath. Emission spectra were recorded by quickly removing the cuvette from the water bath, obtaining the spectrum, and returning the cuvette to the bath. Spectra were taken at t=0, 20, 45, 60, 90, and 120 min (see FIG. 24B).
# [7] = remark: listed apart in the source
# Description: as §1
# 1 μL of 100 mM stock solution of methylglyoxal in Milli-Q water (freshly prepared by diluting 7.7 μL of neat methylglyoxal to 500 μL with Milli-Q water) was added to 999 μL of a 10.01 μM solution of FAP-1 in PBS.
# HEK293T cells [8] = details: 10 μM FAP-1 30 min, FA 200 μM to 1 mM
# Description: Statistical analyses for multiple comparisons were performed using one-way ANOVA with the Bonferroni correction in the statistical analysis software, R.
# HEK293T cells [9] = test system: HEK293T cells
# Description: FIG. 29 depicts a photostability study with FAP-1. A field of HEK293T cells loaded with 10 μM FAP-1 in BSS at 37° C. was irradiated using 50% laser power (dashed line) or 6% laser power (solid line) with a pinhole of 1 airy unit for 100 scans. Emission was normalized to the first scan for each field. Error bars represent standard deviation, n=5.
# [10] = in 1% pyridine/toluene; cited from earlier work
# [11] = pH-Fluorescence profile of compound 4; format: physicochemical; details: pH 2.0 to 10.4, 25° C.
# Description: FIG. 7 depicts the pH-Fluorescence profile of compound 4 (as denoted in FIG. 3). Fluorescence intensity was measured at 25° C. for the following pH values and indicated buffers: 50 mM Glycine (2.0, 2.4, 2.7, 3.1, 3.5), 50 mM sodium acetate (4.0, 4.4, 4.8, 5.2, 5.6), 50 mM MES (5.6, 6.0, 6.4, 6.8), 50 mM HEPES (6.8, 7.2, 7.4, 7.8, 8.2), 50 mM Tris (8.2, 8.6, 9.0, 9.5) and 50 mM glycine (9.5, 9.9, 10.4).
structure (smiles),measurement,setting,value
"Cc1cc2c(ccn2C)cc1C1=C2C=CC(=O)C=C2[Si](C)(C)c2c1cc1c3c2CCCN3CCC1 [Compound 3, 9-(1,6-dimethyl-1H-indol-5-yl)-14,14-dimethyl-2,3,5,6,7,14-hexahydro-1H,12H-benzo[5,6]silino[2,3-f]pyrido[3,2,1-ij]quinolin-12-one]",ε,[1],86000 M⁻¹ cm⁻¹
same,λabs,[1],633 nm
same,λem,[1],649 nm
same,fluorescence (in words),[1]; without the carboxaldehyde,non-fluorescent
"C=O [FA, Formaldehyde]",dead cells (trypan blue),HEK293TN cells; 1 mM FA,5%
same,cells no longer viable (trypan blue),HEK293TN cells; 5 mM FA,~35%
same,loss in viability (trypan blue),"NS1 cells; NS1, 2.5 mM FA, 3 hrs",ca. 12%
same,cell death (trypan blue),"NS1 cells; NS1, 5 mM FA",considerable cell death
same,cell viability (propidium iodide assay),HEK293T cells [2],no difference between FA-treated and untreated cells
"N[C@@H]1C[C@H]1c1ccccc1 (racemic) [TCP, tranylcypromine]",decrease in FAP-1 fluorescence signal compared to control cells,"MCF7 cells; MCF7, 20 μM inhibitor for 20 h",ca. 20%
C=CCC1NC2(c3ccc(C(=O)O)cc31)c1ccc(N(C)C)cc1[Si](C)(C)c1cc(N(C)C)ccc12 (stereo not drawn) [FAP-1],log Doct/wat,"[3]; 1-octanol / PBS, mean±standard deviation, triplicate",0.53±0.01
same,solubility in aqueous solution,[3]; aqueous solution buffered to pH 7.4,good solubility
same,ε650,"[4]; 20 mM PBS, pH 7.4",190 M^1 cm^−1
same,φfl (quantum yield),"[4]; 20 mM PBS, pH 7.4, ZnPc as standard",0.36
same,λem,[4]; turn-on response to FA,662 nm
same,λmax,[4]; turn-on response to FA,645 nm
same,turn-on response at saturation,"[5]; 10 μM FAP-1, 100 μM FA, extended incubation times",ca. 45 fold
same,fold fluorescence turn-on response,"[5]; 10 μM FAP-1, 100 μM FA, pH 7.4, 37° C., within 1 h",ca. 8 fold
same,in vitro detection limit for FA,"[5]; 10 μM FAP-1, 2-hour cutoff",5 µM
same,selectivity for FA over competing RCS and carbonyl-containing molecules,"[6]; 10 μM FAP-1, 100 μM analyte (glucose 1 mM), 37° C.",good selectivity
same,change in fluorescence,[6]; 100 μM H2O2,no change in fluorescence
same,change in fluorescence,[6]; 5 mM glutathione,no change in fluorescence
same,fluorescence response,[7]; 10 μM methylglyoxal,not responsive
same,fluorescence response,[7]; 100 μM methylglyoxal (super-physiological),small response
same,fluorescence turn-on in FA-treated cells over control cells,HEK293T cells [8],significant and dose-dependent fluorescence turn-on
same,photostability,HEK293T cells [9]; 50% laser power,slight photobleaching
same,photostability,HEK293T cells [9]; 100 scans with 6% laser power,consistent fluorescence intensity
"[Zn+2].c1ccc2c(c1)-c1nc-2nc2[n-]c(nc3nc([n-]c4nc(n1)-c1ccccc1-4)-c1ccccc1-3)c1ccccc21 [ZnPc, zinc phthalocyanine]",ϕstandard (quantum yield),[10],0.34
"Cc1cc2c(cc1C1=C3C=CC(=O)C=C3[Si](C)(C)c3c1cc1c4c3CCCN4CCC1)c(C=O)cn2C [Compound 4, 5-(14,14-dimethyl-12-oxo-2,3,6,7,12,14-hexahydro-1H,5H-benzo [5,6]silino [2,3-f]pyrido[3,2,1-ij]quinolin-9-yl)-1,6-dimethyl-1H-indole-3-carbaldehyde]","Φ (quantum efficiency, ΦF)",[1],0.13
same,ε,[1],106000 M⁻¹ cm⁻¹
same,λabs,[1],633 nm
same,λem,[1],649 nm
same,"Φ (quantum efficiency, ΦF)",[1]; listed as indole-3-carboxaldehyde product,0.11
same,pH-fluorescence profile,[11],high fluorescence intensity was maintained under physiological conditions
"C=CCC(N)c1cn(C)c2cc(C)c(C3=C4C=CC(=O)C=C4[Si](C)(C)c4c3cc3c5c4CCCN5CCC3)cc12 (stereo not drawn) [Compound 5, 9-(3-(1-aminobut-3-en-1-yl)-1,6-dimethyl-1H-indol-5-yl)-14,14-dimethyl-2,3,5,6,7,14-hexahydro-1H,12H-benzo[5,6]silino[2,3-f]pyrido[3,2,1-ij]quinolin-12-one]","Φ (quantum efficiency, ΦF)",[1],0.02
same,ε,[1],100000 M⁻¹ cm⁻¹
same,λabs,[1],633 nm
same,λem,[1],649 nm
c1ccc([C@@H]2C[C@H]2NC2CCNCC2)cc1 [GSK-LSD1],effect on FAP-1 fluorescence,"MCF7 cells; MCF7, 1 μM inhibitor for 20 h",attenuated FAP-1 fluorescence
